Assay results as given in US11919902B2, “Aryl-bipyridine amine derivatives as phosphatidylinositol phosphate kinase inhibitors” (HiberCell, Inc., priority 2017, dated 2024).

Legend:
[1] = target: T1, PIP4K2A (full length protein, SignalChem) (Homo sapiens, UniProt P48426); assay: Kinase Assay PIP4K2 A (Sprint); ADP-Glo biochemical assay; settings: Table 2; compounds listed under IC50 range headings
T1 construct: 4 nM PIP4K2A (full length protein, SignalChem); purchased SignalChem
T1 sequence (P48426 1-406): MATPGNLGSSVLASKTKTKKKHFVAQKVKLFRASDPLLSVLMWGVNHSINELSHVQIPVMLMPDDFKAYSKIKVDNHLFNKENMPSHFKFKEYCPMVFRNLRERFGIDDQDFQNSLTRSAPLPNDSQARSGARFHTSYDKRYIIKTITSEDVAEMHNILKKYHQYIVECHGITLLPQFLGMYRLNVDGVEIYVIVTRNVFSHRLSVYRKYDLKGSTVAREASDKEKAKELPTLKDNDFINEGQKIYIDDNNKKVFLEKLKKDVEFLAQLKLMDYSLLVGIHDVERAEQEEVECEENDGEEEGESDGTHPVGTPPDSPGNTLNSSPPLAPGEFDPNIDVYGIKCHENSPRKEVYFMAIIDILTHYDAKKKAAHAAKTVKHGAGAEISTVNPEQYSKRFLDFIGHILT
How it was run: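 ADP-Glo luminescence detected ADP after a 1 h RT reaction started with 60 μM ATP solution. Before that, full-length PIP4K2A (4 nM in mix) with 100 μM PI(5)P diC8 was pre-incubated 15 min with compounds in MOPS buffer pH 7.2, 25 mM MgCl2, 0.005% Tween 20. IC50 derived from % inhibition relative to DMSO over 10 three-fold concentrations.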

GST tagged PIP4KtypeIIA = target: T2, GST tagged PIP4KtypeIIA (Homo sapiens, UniProt P48426); assay: ADP-glo kinase assay PIP4K 2A (PIP4KtypeIIA inhibition assay); type: biochemical; settings: Table 3; compounds listed under IC50 range headings; 10 uM ATP, 0.5 nM PIP4KIIA
T2 construct: made in house; host or cells: E. coli
T2 sequence (P48426 1-406): T1 sequence (P48426 1-406)
How it was run: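 Read-out was ADP-Glo luminescence converted to μM ADP, with IC50 plotted as % of no-inhibitor activity against log concentration. Reactions contained 10 μM ATP, 80 μM PI5P with DOPE carrier, and 0.5 nM GST-tagged PIP4KIIA (E. coli-expressed) in pH 7.3 HEPES/MgCl2 buffer with 5% DMSO. Enzyme and compound (≤4.8 μM) were preincubated 1 h at 27 °C before the 1 h reaction.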

GST tagged PIP4KtypeIIB = target: T3, GST tagged PIP4KtypeIIB (Homo sapiens, UniProt P78356); assay: Trans-FI P kinase assay PIP4K2B (PIP4KtypeIIB inhibition assay); type: biochemical; settings: Table 4; compounds listed under IC50 range headings; 100 uM GTP, 5 nM PIP4KIIB; read-out: Trans-FI P kinase assays: PIP4K2B IC50
T3 construct: made in house; host or cells: E. coli
T3 sequence (P78356 1-416): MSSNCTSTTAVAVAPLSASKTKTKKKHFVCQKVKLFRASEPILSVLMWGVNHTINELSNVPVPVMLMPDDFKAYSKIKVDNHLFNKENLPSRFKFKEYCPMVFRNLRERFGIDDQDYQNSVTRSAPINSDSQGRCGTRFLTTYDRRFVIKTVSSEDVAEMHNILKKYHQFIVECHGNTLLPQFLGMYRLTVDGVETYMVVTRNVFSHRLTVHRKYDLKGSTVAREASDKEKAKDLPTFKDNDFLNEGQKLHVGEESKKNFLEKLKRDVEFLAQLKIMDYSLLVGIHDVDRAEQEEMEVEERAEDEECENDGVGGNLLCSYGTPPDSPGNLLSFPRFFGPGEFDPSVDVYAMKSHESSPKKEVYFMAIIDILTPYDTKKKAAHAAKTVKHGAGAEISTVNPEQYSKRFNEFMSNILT
How it was run: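 Transcreener FI fluorescence, converted to GDP by calibration, tracked product from 5 nM E. coli-expressed GST-PIP4KIIB acting on 80 uM PI5P (DOPE carrier) with 100 uM GTP. Compound (top 4.8 uM final, 5% DMSO) was preincubated 1 h at 27 C before the 2 h reaction; IC50 fitted from residual activity.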

| IC50 [1] [nM] | IC50 (GST tagged PIP4KtypeIIA) [nM] | IC50 (GST tagged PIP4KtypeIIB) [nM] | Structure (SMILES) |
| --- | --- | --- | --- |
| 5 to 100 | 100 to 1000 | 100 to 1000 | O=C1CCCN1c1ccc(-c2cncc(-c3cc(C4CC4)nc4n[nH]cc34)c2)cc1 [Example 267, 1-(4-(5-(6-cyclopropyl-2H-pyrazolo[3,4-b]pyridin-4-yl)pyridin-3-yl)phenyl)pyrrolidin-2-one] |
| < 5000 | > 5000 | > 5000 | Cn1ccc(-c2cncc(-c3ccc(N4CCCC4=O)cc3)c2)cc1=O [Example 33, 1′-methyl-5-(4-(2-oxopyrrolidin-1-yl)phenyl)-[3,4′-bipyridin]-2′(1′H)-one] |
| 100 to 1000 | 2500 to 5000 | 1000 to 2500 | O=C1Cc2c(-c3cncc(-c4ccc(N5CCCC5=O)cc4)c3)ccnc2N1 [Example 42, 4-(5-(4-(2-oxopyrrolidin-1-yl)phenyl)pyridin-3-yl)-1,3-dihydro-2H-pyrrolo[2,3-b]pyridin-2-one] |
| 1 to 5 | 10 to 100 | 1 to 10 | CNC(=O)c1cc2c(-c3cnc(N)c(-c4ccc(N5CCCC5=O)cc4)c3)ccnc2o1 [Example 85, 4-(6-amino-5-(4-(2-oxopyrrolidin-1-yl)phenyl)pyridin-3-yl)-N-methylfuro[2,3-b]pyridine-2-carboxamide] |
| 5 to 100 | 100 to 1000 | 10 to 100 | CN(C)C(=O)c1ccc(-c2cc(-c3ccnc4[nH]c(C(=O)NCc5ccccc5)cc34)cnc2N)nc1 [Example 134, 4-(2′-amino-5-(dimethylcarbamoyl)-[2,3′-bipyridin]-5′-yl)-N-benzyl-1H-pyrrolo[2,3-b]pyridine-2-carboxamide] |
| 5 to 100 | 100 to 1000 | 100 to 1000 | O=C1CCCN1c1ccc(-c2cncc(-c3ccnc4[nH]ncc34)c2)cc1 [Example 215, 1-(4-(5-(2H-pyrazolo[3,4-b]pyridin-4-yl)pyridin-3-yl)phenyl)pyrrolidin-2-one] |
| 5 to 100 | 100 to 1000 | 100 to 1000 | O=C1CCCN1c1ccc(-c2cncc(-c3c[nH]c4ncc(Cl)cc34)c2)cc1 [Example 27, 1-(4-(5-(5-chloro-1H-pyrrolo[2,3-b]pyridin-3-yl)pyridin-3-yl)phenyl)pyrrolidin-2-one] |
| 5 to 100 | 100 to 1000 | 10 to 100 | O=C(O)c1cc2c(-c3cncc(-c4ccc(N5CCCC5=O)cc4)c3)ccnc2[nH]1 [Example 163, 4-(5-(4-(2-oxopyrrolidin-1-yl)phenyl)pyridin-3-yl)-1H-pyrrolo[2,3-b]pyridine-2-carboxylic acid] |
| 100 to 1000 | 2500 to 5000 | 2500 to 5000 | CN(C)C(=O)c1ccc(-c2cncc(-c3cnc4[nH]ccc4c3)c2)cc1 [Example 4, 4-(5-(1H-pyrrolo[2,3-b]pyridin-5-yl)pyridin-3-yl)-N,N-dimethylbenzamide] |
| 100 to 1000 | 100 to 1000 | 100 to 1000 | CN(C)C(=O)c1ccc(-c2cc(-c3ccnc4[nH]c(C(=O)N5CC(C(N)=O)C5)cc34)cnc2N)nc1 [Example 130, 2′-amino-5′-(2-(3-carbamoylazetidine-1-carbonyl)-1H-pyrrolo[2,3-b]pyridin-4-yl)-N,N-dimethyl-[2,3′-bipyridine]-5-carboxamide] |
| 5 to 100 | 100 to 1000 | 100 to 1000 | Cn1cc(-c2cncc(-c3ccc(N4CCCC4=O)cc3)c2)c2cc(N3CCCC3=O)cnc21 [Example 77, 1-(1-methyl-3-(5-(4-(2-oxopyrrolidin-1-yl)phenyl)pyridin-3-yl)-1H-pyrrolo[2,3-b]pyridin-5-yl)pyrrolidin-2-one] |
| 100 to 1000 | 100 to 1000 | 10 to 100 | CC(C)n1cnnc1-c1ccc(-c2cncc(-c3ccnc4c3cc3n4CCN(C)C3=O)c2)cc1 [Example 384, 4-(5-(4-(4-isopropyl-4H-1,2,4-triazol-3-yl)phenyl)pyridin-3-yl)-7-methyl-8,9-dihydropyrido[3′,2′:4,5]pyrrolo[1,2-a]pyrazin-6(7H)-one] |
| 5 to 100 | 100 to 1000 | 100 to 1000 | CNC(=O)c1cc2c(-c3cncc(-c4ccc(N5CCCC5=O)cc4)c3C)ccnc2o1 [Example 174, N-methyl-4-(4-methyl-5-(4-(2-oxopyrrolidin-1-yl)phenyl)pyridin-3-yl)furo[2,3-b]pyridine-2-carboxamide] |
| < 5000 | > 5000 | > 5000 | CN(CC1CCCNC1)C(=O)c1ccc(-c2cncc(-c3ccncc3)c2)cc1 (stereo not drawn) [Example 180, 4-([3,4′-bipyridin]-5-yl)-N-methyl-N-(piperidin-3-ylmethyl)benzamide] |
| < 5000 | > 5000 | 2500 to 5000 | CN(C)C/C=C/C(=O)Nc1cccc(CCC(=O)NCc2cc(-c3cnc(N)c(-c4ccc(C(=O)N(C)C)cn4)c3)ccn2)c1 [Example 195, (E)-2′-amino-2″-((3-(3-(4-(dimethylamino)but-2-enamido)phenyl)propanamido)methyl)-N,N-dimethyl-[2,3′:5′,4″-terpyridine]-5-carboxamide] |
| 100 to 1000 | 100 to 1000 | 10 to 100 | CN1CCn2c(cc3c(-c4cncc(-c5ccc(N6CCCCCC6=O)cc5)c4)ccnc32)C1=O [Example 345, 7-methyl-4-(5-(4-(2-oxoazepan-1-yl)phenyl)pyridin-3-yl)-8,9-dihydropyrido[3′,2′:4,5]pyrrolo[1,2-a]pyrazin-6(7H)-one] |
| 5 to 100 | 100 to 1000 | 100 to 1000 | COc1cnc2[nH]ccc2c1-c1cncc(-c2ccc(N3CCCC3=O)cc2)c1 [Example 34, 1-(4-(5-(5-methoxy-1H-pyrrolo[2,3-b]pyridin-4-yl)pyridin-3-yl)phenyl)pyrrolidin-2-one] |
| 100 to 1000 | 100 to 1000 | 100 to 1000 | COc1cc(-c2cncc(-c3ccc(N4CCCC4=O)cc3)c2)c2c[nH]nc2n1 [Example 257, 1-(4-(5-(6-methoxy-2H-pyrazolo[3,4-b]pyridin-4-yl)pyridin-3-yl)phenyl)pyrrolidin-2-one] |
| 100 to 1000 | 1000 to 2500 | 100 to 1000 | CN(C)C(=O)c1ccc(-c2cc(-c3ccnc4ccccc34)cnc2N)nc1 [Example 20, 2′-amino-N,N-dimethyl-5′-(quinolin-4-yl)-[2,3′-bipyridine]-5-carboxamide] |
| 5 to 100 | 100 to 1000 | 100 to 1000 | CN(C)C(=O)c1cnc2c(c1)c(-c1cncc(-c3ccc(N4CCCC4=O)cc3)c1)cn2C [Example 61, N,N,1-trimethyl-3-(5-(4-(2-oxopyrrolidin-1-yl)phenyl)pyridin-3-yl)-1H-pyrrolo[2,3-b]pyridine-5-carboxamide] |
| 100 to 1000 | 1000 to 2500 | 1000 to 2500 | COC(=O)N1Cc2nccc(-c3cncc(-c4ccc(N5CCCC5=O)cc4)c3)c2C1 [Example 65, methyl 4-(5-(4-(2-oxopyrrolidin-1-yl)phenyl)pyridin-3-yl)-5,7-dihydro-6H-pyrrolo[3,4-b]pyridine-6-carboxylate] |
| 5 to 100 | 100 to 1000 | 10 to 100 | CCOC(=O)c1cc2c(-c3cncc(-c4ccc(N5CCCC5=O)cc4)c3)ccnc2[nH]1 [Example 162, ethyl 4-(5-(4-(2-oxopyrrolidin-1-yl)phenyl)pyridin-3-yl)-1H-pyrrolo[2,3-b]pyridine-2-carboxylate] |
| 5 to 100 | 10 to 100 | 100 to 1000 | O=C(NC1COC1)c1cc2c(-c3cncc(-c4ccc(N5CCCC5=O)cc4)c3)ccnc2o1 [Example 166, N-(oxetan-3-yl)-4-(5-(4-(2-oxopyrrolidin-1-yl)phenyl)pyridin-3-yl)furo[2,3-b]pyridine-2-carboxamide] |
